This passage reports Km and Kcat results from US5310675A, “Procaryotic carbonyl hydrolases” (priority 1991, dated 1994).

Each structure is given as a SMILES string. *1 amine or outer side, *2 acyl side, *3 side chain or, on linkers, in order; H or OH if unused. Where a SMILES comes first, the peptide text is derived from it. The star is where a group is joined. pNA = O=[N+]([O-])c1ccc(N*)cc1; Suc = O=C(CCC(=O)[*:2])[*:1]; Bz = O=C(c1ccccc1)*

Holding throughout (experiment): Kinetic parameters from progress curves, p-nitroanilide substrates
What all share (type): biochemical
What all share (settings): 25° C., 0.1M tris buffer, pH 8.6

In assay [1] the target is T1, B. amyloliquefaciens subtilisin, wild type (gly-166) (Bacillus amyloliquefaciens, UniProt P00782).
T1 construct: codons for the mature subtilisin corresponding to that secreted by the B. amyloliquefaciens; made in house; host or cells: B. subtilis BG2036 (transformed with pS4-5)
T1 sequence (P00782 108-382): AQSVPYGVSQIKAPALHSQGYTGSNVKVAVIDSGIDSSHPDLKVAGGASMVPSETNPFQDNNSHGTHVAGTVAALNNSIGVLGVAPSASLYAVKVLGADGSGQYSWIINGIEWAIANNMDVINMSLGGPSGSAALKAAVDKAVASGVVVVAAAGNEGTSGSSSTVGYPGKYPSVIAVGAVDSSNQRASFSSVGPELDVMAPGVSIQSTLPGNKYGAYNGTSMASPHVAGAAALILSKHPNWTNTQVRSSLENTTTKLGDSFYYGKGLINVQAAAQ
On the procedure:
(§1) B. subtilis strain BG2036 obtained by the method of Example 11 was transformed by the plasmids of Examples 14, 15 or 20 and by pS4-5 as a control. Transformants were plated or cultured in shaker flasks for 16 to 48 h at 37° C. in LB media plus 12.5 μg/ml chloramphenicol. Mutant enzymatically active subtilisin was recovered by dialyzing cell broth against 0.01M sodium phosphate buffer, pH 6.2. The dialyzed broth was then titrated to pH 6.2 with 1N HCl and loaded on a 2.5×2 cm column of CM Cellulose (CM-52 Whatman). After washing with 0.01M sodium phosphate, pH 6.2, the subtilisins (except mutants at position +222) were eluted with the same buffer made 0.08N in NaCl. The mutant subtilisins at position +222 were each eluted with 0.1M sodium phosphate, pH 7.0. The purified mutant and wild type enzymes were then used in studies of oxidation stability, Km, Kcat, Kcat/Km ratio, pH optimum, and changes in substrate specificity.
(§2) Various mutants for glycine+166 were screened for modified Kcat, Km and Kcat/Km ratios. Kinetic parameters were obtained by analysis of the progress curves of the reactions. The rate of reaction was measured as a function of substrate concentration. Data was analyzed by fitting to the Michaelis-Menton equation using the non-linear regression algorithm of Marquardt (Marquardt, D. W. 1963, "J. Soc. Ind. Appl. Math." 11, 431-41).

The target in assay [2] is T2, B. amyloliquefaciens subtilisin variant asp+166 (D166; glycine+166 to asp) (Bacillus amyloliquefaciens, UniProt P00782, G273D).
T2 construct: codons for the mature subtilisin corresponding to that secreted by the B. amyloliquefaciens; made in house; host or cells: B. subtilis BG2036
T2 sequence (P00782 108-382 G273D): as the sequence (P00782 108-382) above, with G166D counted along it
On the procedure:
as §1, §2

The target of assay [3] is T3, B. amyloliquefaciens subtilisin variant glu+166 (E166; glycine+166 to glu) (Bacillus amyloliquefaciens, UniProt P00782, G273E).
T3 construct: codons for the mature subtilisin corresponding to that secreted by the B. amyloliquefaciens; made in house; host or cells: B. subtilis BG2036
T3 sequence (P00782 108-382 G273E): as the sequence (P00782 108-382) above, with G166E counted along it
On the procedure: as §1, §2

Assay [4] has as its target T4, B. amyloliquefaciens subtilisin variant asn+166 (glycine+166 to asn) (Bacillus amyloliquefaciens, UniProt P00782, G273N).
T4 construct: codons for the mature subtilisin corresponding to that secreted by the B. amyloliquefaciens; made in house; host or cells: B. subtilis BG2036
The protocol:
as §1, §2

For assay [5], the target named is T5, B. amyloliquefaciens subtilisin variant lys+166 (glycine+166 to lys) (Bacillus amyloliquefaciens, UniProt P00782, G273K).
T5 construct: codons for the mature subtilisin corresponding to that secreted by the B. amyloliquefaciens; made in house; host or cells: B. subtilis BG2036
T5 sequence (P00782 108-382 G273K): as the sequence (P00782 108-382) above, with G166K counted along it
The protocol:
as §1, §2

The target of assay [6] is T6, B. amyloliquefaciens subtilisin variant ala+166 (A166; glycine+166 to ala) (Bacillus amyloliquefaciens, UniProt P00782, G273A).
T6 construct: codons for the mature subtilisin corresponding to that secreted by the B. amyloliquefaciens; made in house; host or cells: B. subtilis BG2036
T6 sequence (P00782 108-382 G273A): as the sequence (P00782 108-382) above, with G166A counted along it
The protocol: as §1, §2

Assay [7] addresses T7, B. amyloliquefaciens subtilisin variant phe+166 (glycine+166 to phe) (Bacillus amyloliquefaciens, UniProt P00782, G273F).
T7 construct: codons for the mature subtilisin corresponding to that secreted by the B. amyloliquefaciens; made in house; host or cells: B. subtilis BG2036
The protocol:
as §1, §2

Assay [8] concerns the target T8, B. amyloliquefaciens subtilisin variant arg+166 (glycine+166 to arg) (Bacillus amyloliquefaciens, UniProt P00782, G273R).
T8 construct: codons for the mature subtilisin corresponding to that secreted by the B. amyloliquefaciens; made in house; host or cells: B. subtilis BG2036
On the procedure:
as §1, §2

For assay [9], the target named is T9, B. amyloliquefaciens subtilisin variant hys+166 (glycine+166 to his) (Bacillus amyloliquefaciens, UniProt P00782, G273H).
T9 construct: codons for the mature subtilisin corresponding to that secreted by the B. amyloliquefaciens; made in house; host or cells: B. subtilis BG2036
T9 sequence (P00782 108-382 G273H): as the sequence (P00782 108-382) above, with G166H counted along it
The protocol:
as §1, §2

T4 sequence (P00782 108-382 G273N): as the sequence (P00782 108-382) above, with G166N counted along it
T7 sequence (P00782 108-382 G273F): as the sequence (P00782 108-382) above, with G166F counted along it
T8 sequence (P00782 108-382 G273R): as the sequence (P00782 108-382) above, with G166R counted along it

For the molecule `CC(C)[C@H](NC(=O)c1ccccc1)C(=O)NCC(=O)N[C@@H](CCCNC(=N)N)C(=O)Nc1ccc([N+](=O)[O-])cc1` [BVGRpN, benzoyl-L-Valyl-Glycyl-L-Arginyl-p-nitroanilide] (Bz-Val-Gly-Arg-pNA), the Km in assay [1] was determined as 1100 µM; in [2], 41 µM; in assay [3], 27 µM; in assay [4], 120 µM. The Kcat in assay [2] and in assay [3] was 2 s⁻¹ each time.
As for `C[C@H](NC(=O)CCC(=O)O)C(=O)N[C@@H](C)C(=O)N1CCC[C@H]1C(=O)N[C@@H](Cc1ccccc1)C(=O)Nc1ccc([N+](=O)[O-])cc1` [sAAPFpN, succinyl-L-Alanyl-L-Alanyl-L-Prolyl-L-Phenylalanyl-p-nitro-anilide] (Suc-AAPF-pNA), the Km is 34 µM in assay [5]; 27 µM in assay [6]; 14 µM in assay [7]; 140 µM in assay [1]; 62 µM in assay [8]; 110 µM in [9]. Besides, the Km worked out at 580 µM in assay [2], 340 µM in assay [3] and 140 µM in [4]. The molecule also yielded a Kcat in [7] of 3 s⁻¹.
